Measured values reported in PubChem BioAssay (NCI).
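Protocol summary: plate cells (96-well), add compound at 5 concentrations, incubate 48 h, interpolate endpoints linearly. The concentration for 50% growth inhibition is given as GI50. TGI marks complete inhibition of growth.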

Assays:
Assay in all cases: growth of human tumour cells (NCI), 48 h
M14 melanoma = system: M14 melanoma
LOX IMVI melanoma = system: LOX IMVI melanoma
CAKI-1 renal = system: CAKI-1 renal
TK-10 renal = system: TK-10 renal
UO-31 renal = system: UO-31 renal
NCI-H23 lung = system: NCI-H23 lung
HOP-92 NSCLC = system: HOP-92 NSCLC
RPMI-8226 leukemia = system: RPMI-8226 leukemia
UACC-62 melanoma = system: UACC-62 melanoma
HOP-62 NSCLC = system: HOP-62 NSCLC
SW-620 colon = system: SW-620 colon
SK-MEL-2 melanoma = system: SK-MEL-2 melanoma
ACHN renal = system: ACHN renal
DU-145 prostate = system: DU-145 prostate
IGROV1 ovarian = system: IGROV1 ovarian
786-0 renal = system: 786-0 renal
COLO 205 colon = system: COLO 205 colon
U251 CNS = system: U251 CNS
A498 renal = system: A498 renal
OVCAR-3 ovarian = system: OVCAR-3 ovarian
MDA-MB-435 = system: MDA-MB-435
MDA-MB-231 breast = system: MDA-MB-231 breast
A549 NSCLC = system: A549 NSCLC
NCI-H226 lung = system: NCI-H226 lung
SF-295 CNS = system: SF-295 CNS
HL-60(TB) leukemia = system: HL-60(TB) leukemia
NCI-H522 lung = system: NCI-H522 lung
RXF 393 renal = system: RXF 393 renal
NCI-H460 lung = system: NCI-H460 lung
KM12 colon = system: KM12 colon
SR leukemia = system: SR leukemia
HS 578T breast = system: HS 578T breast
NCI/ADR-RES ovarian = system: NCI/ADR-RES ovarian
OVCAR-5 ovarian = system: OVCAR-5 ovarian
MALME-3M melanoma = system: MALME-3M melanoma
HCT-15 colon = system: HCT-15 colon
MOLT-4 leukemia = system: MOLT-4 leukemia
SK-OV-3 ovarian = system: SK-OV-3 ovarian
SNB-75 CNS = system: SNB-75 CNS
PC-3 prostate = system: PC-3 prostate
BT-549 breast = system: BT-549 breast
SK-MEL-28 melanoma = system: SK-MEL-28 melanoma
MCF7 breast = system: MCF7 breast
SF-539 CNS = system: SF-539 CNS
OVCAR-4 ovarian = system: OVCAR-4 ovarian
HCT-116 colon = system: HCT-116 colon
OVCAR-8 ovarian = system: OVCAR-8 ovarian
CCRF-CEM leukemia = system: CCRF-CEM leukemia
T-47D breast = system: T-47D breast
SN12C renal = system: SN12C renal
K-562 leukemia = system: K-562 leukemia
UACC-257 melanoma = system: UACC-257 melanoma
SF-268 CNS = system: SF-268 CNS
SNB-19 CNS = system: SNB-19 CNS
SK-MEL-5 melanoma = system: SK-MEL-5 melanoma
HCC-2998 colon = system: HCC-2998 colon
HT29 colon = system: HT29 colon
EKVX NSCLC = system: EKVX NSCLC

C(/C=C(\Nc1ccccc1)c1ccc2ccccc2c1)=Nc1ccccc1
TGI (M14 melanoma): 6.14 µM | TGI (LOX IMVI melanoma): 5.4 µM | TGI (CAKI-1 renal): 7.22 µM | TGI (TK-10 renal): 4.47 µM | TGI (UO-31 renal): 15.8 µM | TGI (NCI-H23 lung): 6.63 µM | TGI (HOP-92 NSCLC): 28.1 µM | TGI (RPMI-8226 leukemia): 5.67 µM | TGI (UACC-62 melanoma): 3.37 µM | TGI (HOP-62 NSCLC): 7.05 µM | TGI (SW-620 colon): 17.3 µM | TGI (SK-MEL-2 melanoma): 30.9 µM | TGI (ACHN renal): 11.5 µM | TGI (DU-145 prostate): 6.29 µM | TGI (IGROV1 ovarian): 13.7 µM | TGI (786-0 renal): 8.9 µM | TGI (COLO 205 colon): 4.1 µM | TGI (U251 CNS): 8.66 µM | TGI (A498 renal): 25.8 µM | TGI (OVCAR-3 ovarian): 4.08 µM | TGI (MDA-MB-435): 1.27 µM | TGI (MDA-MB-231 breast): 4.1 µM | TGI (A549 NSCLC): 18.4 µM | TGI (NCI-H226 lung): 5.64 µM | TGI (SF-295 CNS): 4.28 µM | TGI (HL-60(TB) leukemia): 11.8 µM | TGI (NCI-H522 lung): 19 µM | TGI (RXF 393 renal): 7.41 µM | TGI (NCI-H460 lung): 11.9 µM | TGI (KM12 colon): 12.2 µM | TGI (SR leukemia): 2.49 µM | TGI (HS 578T breast): 13.7 µM | TGI (NCI/ADR-RES ovarian): 3.93 µM | TGI (OVCAR-5 ovarian): 9.86 µM | TGI (MALME-3M melanoma): 15 µM | TGI (HCT-15 colon): 5.61 µM | TGI (MOLT-4 leukemia): 2.62 µM | TGI (SK-OV-3 ovarian): 11.5 µM | TGI (SNB-75 CNS): 8.39 µM | TGI (PC-3 prostate): 11.8 µM | TGI (BT-549 breast): 4.6 µM | TGI (SK-MEL-28 melanoma): 0.961 µM | TGI (MCF7 breast): 15.7 µM | TGI (SF-539 CNS): 4.1 µM | TGI (OVCAR-4 ovarian): 14.5 µM | TGI (HCT-116 colon): 10 µM | TGI (OVCAR-8 ovarian): 14.1 µM | TGI (CCRF-CEM leukemia): 2.85 µM | TGI (T-47D breast): 12.9 µM | TGI (SN12C renal): 5.15 µM | TGI (K-562 leukemia): 4.22 µM | TGI (UACC-257 melanoma): 19.2 µM | TGI (SF-268 CNS): 29.5 µM | TGI (SNB-19 CNS): 8.24 µM | TGI (SK-MEL-5 melanoma): 13.8 µM

O=C1c2ccccc2-c2cn(Cc3ccccc3)c3cccc(c23)C1c1cccnc1 (configuration not stated)
GI50 (M14 melanoma): 3.89 µM | TGI (M14 melanoma): > 50 µM | GI50 (LOX IMVI melanoma): 2.76 µM | TGI (LOX IMVI melanoma): > 50 µM | GI50 (CAKI-1 renal): 2.74 µM | TGI (CAKI-1 renal): > 50 µM | GI50 (TK-10 renal): 20.8 µM | TGI (TK-10 renal): > 50 µM | GI50 (UO-31 renal): 5.2 µM | TGI (UO-31 renal): > 50 µM | GI50 (NCI-H23 lung): 1.74 µM | TGI (NCI-H23 lung): > 50 µM | GI50 (HCC-2998 colon): 11.4 µM | TGI (HCC-2998 colon): > 50 µM | GI50 (HOP-92 NSCLC): 2.74 µM | TGI (HOP-92 NSCLC): > 50 µM | GI50 (HT29 colon): 1.86 µM | TGI (HT29 colon): > 50 µM | GI50 (UACC-62 melanoma): 2.73 µM | TGI (UACC-62 melanoma): > 50 µM | GI50 (HOP-62 NSCLC): 3.44 µM | TGI (HOP-62 NSCLC): > 50 µM | GI50 (SW-620 colon): 1.88 µM | TGI (SW-620 colon): > 50 µM | GI50 (SK-MEL-2 melanoma): 3.9 µM | TGI (SK-MEL-2 melanoma): > 50 µM | GI50 (ACHN renal): 12.1 µM | TGI (ACHN renal): > 50 µM | GI50 (DU-145 prostate): 4.27 µM | TGI (DU-145 prostate): 40.5 µM | GI50 (IGROV1 ovarian): 3.41 µM | TGI (IGROV1 ovarian): > 50 µM | GI50 (786-0 renal): 5.78 µM | TGI (786-0 renal): > 50 µM | GI50 (COLO 205 colon): 2.26 µM | TGI (COLO 205 colon): 9.44 µM | GI50 (A498 renal): 1.34 µM | TGI (A498 renal): 29.9 µM | GI50 (OVCAR-3 ovarian): 1.8 µM | TGI (OVCAR-3 ovarian): 4.95 µM | GI50 (MDA-MB-435): 1.32 µM | TGI (MDA-MB-435): 6.13 µM | GI50 (MDA-MB-231 breast): 4.18 µM | TGI (MDA-MB-231 breast): > 50 µM | GI50 (A549 NSCLC): 3.2 µM | TGI (A549 NSCLC): > 50 µM | GI50 (NCI-H226 lung): > 50 µM | TGI (NCI-H226 lung): > 50 µM | GI50 (SF-295 CNS): 2.02 µM | TGI (SF-295 CNS): > 50 µM | GI50 (HL-60(TB) leukemia): 2.4 µM | TGI (HL-60(TB) leukemia): 19.5 µM | GI50 (NCI-H522 lung): 2.28 µM | TGI (NCI-H522 lung): 33.4 µM | GI50 (RXF 393 renal): 8.1 µM | TGI (RXF 393 renal): > 50 µM | GI50 (NCI-H460 lung): 1.9 µM | TGI (NCI-H460 lung): > 50 µM | GI50 (KM12 colon): 2.27 µM | TGI (KM12 colon): > 50 µM | GI50 (SR leukemia): 1.78 µM | TGI (SR leukemia): > 50 µM | GI50 (HS 578T breast): 2.92 µM | TGI (HS 578T breast): 45 µM | GI50 (NCI/ADR-RES ovarian): 1.97 µM | TGI (NCI/ADR-RES ovarian): > 50 µM | GI50 (OVCAR-5 ovarian): > 50 µM | TGI (OVCAR-5 ovarian): > 50 µM | GI50 (MALME-3M melanoma): 10.2 µM | TGI (MALME-3M melanoma): > 50 µM | GI50 (HCT-15 colon): 2.54 µM | TGI (HCT-15 colon): > 50 µM | GI50 (MOLT-4 leukemia): 3.2 µM | TGI (MOLT-4 leukemia): > 50 µM | GI50 (SK-OV-3 ovarian): 5.38 µM | TGI (SK-OV-3 ovarian): > 50 µM | GI50 (SNB-75 CNS): 1.38 µM | TGI (SNB-75 CNS): 26 µM | GI50 (PC-3 prostate): 5.94 µM | TGI (PC-3 prostate): > 50 µM | GI50 (BT-549 breast): 6.62 µM | TGI (BT-549 breast): > 50 µM | GI50 (SK-MEL-28 melanoma): 4.12 µM | TGI (SK-MEL-28 melanoma): > 50 µM | GI50 (MCF7 breast): 1.64 µM | TGI (MCF7 breast): > 50 µM | GI50 (SF-539 CNS): 5.67 µM | TGI (SF-539 CNS): > 50 µM | GI50 (OVCAR-4 ovarian): 6.15 µM | TGI (OVCAR-4 ovarian): > 50 µM | GI50 (HCT-116 colon): 1.99 µM | TGI (HCT-116 colon): > 50 µM | GI50 (OVCAR-8 ovarian): 9.3 µM | TGI (OVCAR-8 ovarian): > 50 µM | GI50 (CCRF-CEM leukemia): 2.62 µM | TGI (CCRF-CEM leukemia): > 50 µM | GI50 (T-47D breast): 2.32 µM | TGI (T-47D breast): > 50 µM | GI50 (SN12C renal): 3.08 µM | TGI (SN12C renal): > 50 µM | GI50 (K-562 leukemia): 2.09 µM | TGI (K-562 leukemia): > 50 µM | GI50 (UACC-257 melanoma): 11.2 µM | TGI (UACC-257 melanoma): > 50 µM | GI50 (SF-268 CNS): 18.5 µM | TGI (SF-268 CNS): > 50 µM | GI50 (EKVX NSCLC): 9.61 µM | TGI (EKVX NSCLC): > 50 µM | GI50 (SNB-19 CNS): 14.3 µM | TGI (SNB-19 CNS): > 50 µM | GI50 (SK-MEL-5 melanoma): 2.42 µM | TGI (SK-MEL-5 melanoma): 17.9 µM
